Tests used:
[1] = system: Ctrl or B2m KO MC38 tumors; assay: Ctrl or B2m KO MC38 tumors in mice; format: in vivo; details: 0.5 mg/kg/day
Excerpt: FIGS. 6A-B are graphs showing anti-tumor activity of low-dose HSP90i is dependent on functional MHC Class I expression. Ctrl or B2m KO cells were generated by CRISPR-Cas9 mediated gene editing, and B2m KO cells were confirmed to no longer express MHC-I on the cell surface. FIG. 6A is a line graph showing relative number of viable Ctrl and B2m KO cells measured by standard dye reduction assay following 2-day exposure to increasing concentrations of HSP90i; FIG. 6B is a line graph showing size in mm^3 of Ctrl or B2m KO MC38 tumors in mice treated with vehicle (Veh, solid lines) or 0.5 mg/kg/day HSP90i (dotted lines) over 25 days post implantation.
For CRISPR/Cas9-mediated disruption of B2m, pSpCas9-P2A-GFP plasmid (Addgene #48138) was modified with a control sgRNA sequence ([…]) or an sgRNA targeting B2m ([…]). Log phase MC38 cells were transfected with Ctrl or B2m plasmids using Lipofectamine 2000 (Invitrogen) according to manufacturer's instructions. 24 hours later, single GFP positive cells were sorted into 96-well plates to isolate individual MC38 clones with the desired modification. After 2 weeks, isolated clones were tested by western blot to confirm loss of B2m expression. Ctrl and B2m clones were then passaged through syngeneic mice (C57/B16) to increase the uniformity of tumor establishment and progression in subsequent experiments.

MC38 tumors = assay: Subcutaneous MC38 tumors in syngeneic C57Bl/6 mice, HSP90i in drinking water; format: in vivo
Experimental: All experiments involving mice were performed under a protocol approved by the MIT Institutional Animal Care and Use Committee. MC38 cells growing in log phase were harvested by incubation with trypsin, washed 3× in PBS, and implanted (1×10^5 cells/site) into the right inguinal region of 6-8 week old female C57B16 mice (Jackson Labs). Once palpable, tumors were monitored every other day via digital caliper measurements and volume calculated using the following formula: Length (mm)×Width (mm)×Width (mm)×[…]=tumor volume in mm^3. Mice were euthanized by CO2 inhalation, tumors were harvested and cut into thirds with a razor for histology, flow cytometry, and flash freezing in liquid N2 for RNA/protein isolation.
For oral dosing with HSP90i, the average water consumption of the mice was calculated by measuring water bottle weight before and after 72 hours of housing to determine the average consumption per mouse, per day. Across all experiments, C57Cl/6 mice consumed approximately 4 mL every day. Using these water consumption values, and mouse weight, a 4 mg/mL stock solution of NVP-HSP990 (in 100% PEG400) was diluted directly into the drinking water to achieve a target dose of 0.5 mg/kg/day. HSP990 treatment was begun 72 hours prior to implantation of MC38 cells to allow the drug to reach steady state level prior to tumor challenge.
Histology For histological sectioning, tumor tissue was fixed in 10% buffered formalin for 24 hours prior to transfer to 70% EtOH for storage until paraffin-embedding, sectioning and mounting on glass slides. For CD3 and CD8 staining, slides were dewaxed, and antigen retrieval was performed in citrate buffer (10 mM Citric acid, pH=6.0) and pressure-cooked. Slides were then cooled and washed in PBS+0.1% Tween-20 (PBST). Endogenous peroxidase activity was then blocked with Dako Dual Enzyme Block (Agilent Technologies) and endogenous proteins were blocked with 2.5% goat serum in PBST. Slides were then incubated with primary anti-CD8 antibody (1:400) overnight at 4° C. or anti-CD3 antibody (1:500) for 1 hr at 25° C. After incubation with primary antibody, slides were washed 3× with PBST, and then incubated with HRP-conjugated secondary antibody for 30 min at […]. Slides were then washed 3× with PBST prior to development with DAB substrate for 3-5 min until positive staining was observed.
For CD8 and CD3 quantification, slides were scanned with a Leica High Resolution slide scanner and images imported into Aperio eSlide Manager. Two independent sections from each tumor were outlined and CD3/CD8+ cells were identified and quantified using the Nuclear-ID-v1 Algorithm. Individual tumor values are the average of the two tumor sections.
For analysis of MHC Class I on MC38 tumors, mice were sacrificed with by CO2 inhalation, tumor tissue quickly dissected and placed on ice until processing by thorough mincing with a razor and filtration through a 70 μm cell strainer. Cells were then stained with H2-Kb antibody (1:400) or isotype control as described for cultured cells.
For analysis of tissues, samples (2.5-5.0 mm^3) were homogenized in 1 mL of Trizol (Molecular Research Center), phase separated with 200 μL chloroform, and precipitated with 100% isopropanol prior to resuspension in MilliQ H2O and quantification with Nanodrop. RNA was then processed as described above for qRT-PCR.

[2] = system: SUM159, SKMEL, H838 cells; assay: Flow cytometry of MHC Class I on human tumor cell lines SUM159, SKMEL, H838; format: cell-based; details: low dose, 72 hours
Experimental: FIGS. 4A-4F are graphs showing low dose administration of HSP90i stimulates antigen presentation of tumor cells. […] FIG. 4C is a line graph showing relative MC38 cell number following exposure to increasing concentrations of Hsp90i; Live cell number was assessed with a standard metabolic dye-based (Alamar blue) assay and cell mass assessed by protein content using sulphorhodamine-B (SRB) assay. Representative histograms showing flow cytometric measurement of relative MHC Class I expression on the surface of triple-negative breast cancer (SUM159) (FIG. 4D), melanoma (SKMEL) (FIG. 4E), and lung adenocarcinoma (H838) (FIG. 4F) cells treated with DMSO (Veh) or low dose HSP990 for 72 hours.
MC38 cells were kindly provided by A. Sharpe from Dana Farber Cancer Institute. Cells were maintained in DMEM supplemented with 10% FBS and penicillin/streptomycin. SUM159, H838, SKMEL, and Colo cells were maintained in RPMI1640 supplemented with 10% FBS and penicillin/streptomycin. Cells were confirmed negative for mycoplasma contamination by PCR-based assay. […] Fluorescence as a measure of relative dye reduction was measured on an Envision plate reader (Perkin Elmer) with excitation at 544 nm and emission readings at 570 nm.
For analysis of MHC Class I surface expression, cells were seeded into 12 well plates (125,000/well). […] Cytometric data were plotted and analyzed with FloJo.

[3] = 0.5 mg/kg/day in drinking water, 18 days post implantation, C57Bl/6

COc1cccc(-c2cc(F)ccc2[C@H]2Cc3nc(N)nc(C)c3C(=O)N2)n1 [NVP-HSP990]
growth kinetics of B2m KO MC38 tumors, treated versus vehicle [1]: nearly identical growth kinetics | growth of Ctrl MC38 tumors [1]: reduced the growth of Ctrl tumors | reduction in tumor mass (MC38 tumors; [3]): greater than 50% | reduction in tumor volume (MC38 tumors; [3]): greater than 50% | heat-shock response in tumors (qRT-PCR) (MC38 tumors; continuous low-dose administration): does not induce a heat-shock response | immune gene expression in MC38 tumor tissue (Nanostring) (MC38 tumors; low dose exposure): did not result in broad downregulation in immune gene expression | total number of CD3+ or CD8+ T-cells in the tumors (MC38 tumors; treated versus control mice): no significant difference | MHC Class I expression on the surface of dissociated MC38 tumor cells (MC38 tumors; tumors from treated mice versus vehicle): higher levels of MHC Class I expression | MHC Class I expression on human tumor cell lines from breast, melanocytes and lung [2]: induced upregulation of MHC Class I expression
